Entries after “also recorded” stand apart in the source; their conditions may differ. Where a SMILES comes first, the peptide text is derived from it. Bridges are numbered along the chain shown (N, C = ends). Roman numbers before positions name the chains, in order. Where no end group is shown, it is not given here. [ ]: non-standard residue; d: D form.

The conditions of data set [1]: cited from earlier work; for antipyretic potency relative to α-MSH (11-13): centrally administered, rabbit, Deeter et al. 1989.
For data set [2] the following is noted: in vivo.
For data set [3] the following is noted: in vivo. This is another data set of the same source.
Data set [4] relates to C. albicans (clinical isolate). Put plainly: C. albicans viability by colony forming units. Type of data set: cell-based, Candida albicans. The following applies: 10^−6 M. Here is the method:
C. albicans (clinical isolate) were obtained from the collection of the Department of Microbiology, Ospedale Maggiore di Milano. C. albicans were maintained on Sabouraud's agar slants and periodically transferred to Sabouraud's agar plates and incubated for 48 hours at 28° C. To prepare stationary growth phase yeast, a colony was taken from the agar plate and transferred into 30 ml Sabouraud-dextrose broth and incubated for 72 hours at 32° C. Cells were centrifuged at 100×g for 10 minutes and the pellet was washed twice with distilled water. Cells were counted and suspended in Hank's balanced salt solution (“HBSS”) to the desired concentration. […] C. albicans (I×10^6/ml in HBSS) was incubated in the presence or absence of α-MSH [1-13], KPV, (SEQ. ID NO.1) or the (“KPV dimer”) at concentrations in the range of 10^−15 to 10^−4M for 2 hours at 37° C. Cells were then washed in cold distilled water and diluted with HBSS to a concentration of 100 organisms/ml. One ml aliquots were dispensed on blood agar plates and incubated for 48 hours at 37° C. Organism viability was estimated from the number of colonies formed.
Fluconazole is a well established antifungal agent. […] The peptides and fluconazole were tested in concentrations of 10^−6 M. There were at least six replicates for each concentration of peptide.

Data set [5] deals with Enterococcus faecalis (MDR) (ATCC 51299). Put plainly: Broth dilution turbidity test of growth inhibition. Type of data set: cell-based. Here is the method:
(§1) These organisms were subcultured onto blood agar plates and incubated for 16-24 hours at 35±2° C. An inoculated needle or loop was touched to each of four or five well isolated colonies of the same morphological type, and the inoculum inoculated into 5 mL of MHB.
(§2) The broth cultures were then allowed to incubate at 35±2° C. until turbidity appeared (usually 2 to 5 hours). […] This turbidity is half the density of a McFarland number one standard and is often referred to as McFarland 0.5 standard (approx. 1.5×10^8 CFU/mL). This turbidity standard was agitated on a vortex mixer immediately before use. Sealed tubes were stored in the dark at room temperature and replaced if the inocula are shown (by count) to be aberrant.
(§3) The broth culture was further diluted to 1:200 in MHB broth (to obtain a final concentration of 10^5 to 10^6 CFU/mL). To determine the initial concentration of the organism in the above solution, serial dilutions were performed 1:10 in MHB four times to achieve a final dilution of 10^−4. Aliquots 1.0 mL from each of the dilutions were placed in duplicate into sterile petri dishes. Approximately 15 to 20 mL of tempered (45±2° C.) MCTA agar media was added. The plates were incubated overnight at 35±2° C. for 16-20 hours. Following the incubation period, the colonies were counted.
(§4) These dilutions were developed according to the procedure: for each drug substance label 9 flasks (10 ml Volumetric) 1 through 9; for each sample add 3 mL of deionized (“DI”) water to a 10 mL volumetric flask; then transfer the amount of anti-microbial and anti-inflammatory peptides as specified below in Table 2; record the actual amount transferred in the laboratory notebook; and add the remaining amount of DI water to bring up to volume of 10 mL.
(§5) 100 μL of the anti-microbial and anti-inflammatory peptide solution from each of the flasks was then added to the correspondingly labeled well; to well number 10 add 100 μL sterile DI Water; and to all ten wells add 100 μL of inoculum created previously.
(§6) The procedure was repeated for each of the seven microorganisms tested.
(§7) Each well was tested for turbidity, as an indicator of growth.

Data set [6] deals with Streptococcus pyogenes Group A (ATCC 19615). Put plainly: Broth dilution turbidity test of growth inhibition. Type of data set: cell-based. The method, then: as §1, §2, §3, §4, §5, §6, §7
For orientation: Broth dilution looks for growth in wells or tubes with falling amounts of substance.

Data set [7] has as its system Staphylococcus aureus (ATCC29213). Put plainly: S. aureus viability by colony forming units. Type of data set: cell-based. The following applies: 10^−15 to 10^−4M, 2 hours at 37° C. Here is the method:
Staphylococcus aureus (ATCC29213) was obtained from the collection of the Department of Microbiology, Ospedale Maggiore di Milano. S. aureus (1×10^6/ml in HBSS) was incubated in the presence or absence of α-MSH [1-13] (SEQ ID NO: 6), α-MSH [11-13] (SEQ. ID NO. 1) or the KPV dimer (SEQ ID NO: 4) at concentrations in the range of 10^−15 to 10^−4M for 2 hours at 37° C. S. aureus were then washed in cold distilled water and diluted with HBSS to a concentration of 100 organisms/ml. One ml aliquots were dispensed on blood agar plates and incubated for 24 hours at 37° C. Organism viability was estimated from the number of colony forming units.

Data set [8] relates to S. aureus. The data set can be described thus: Urokinase-induced growth enhancement of S. aureus. Type of data set: cell-based, Staphylococcus aureus. The conditions noted are these: 10^−6 M, recombinant human urokinase 500 U, four hours at 37° C. Here is the method: In this experiment, the influence of α-MSH on urokinase-induced growth-enhancement is determined. […] (SEQ. ID NO.1) at 10^−6 M. Appropriate dilutions of S. aureus were dispensed on agar plates and colonies counted after 24 hours incubation at 37° C.

Data set [9] has as its system HIV transcription. The conditions noted are these: 10^−5M; PMA (1 ng/mL) stimulated UI cells, 24 h.
Text: Total RNA was extracted by the guanidine thiocyanate phenol method using an RNA isolation kit (Tripure, Boehringer Mannheim, Indianapolis, Ind.), following the manufacturer's instructions. Ten ng of total RNA were separated by 0.8% agarose/formaldehyde gel electrophoresis and transferred onto nylon membrane. The filters were baked and hybridized for 18 hr with ^32P-labeled HIV-full length probe (kind gift of L. Turchetto and E. Vicenzi, S. Raffaele Hospital, Milan, Italy). The radiolabeling reaction was performed using a DNA labeling kit (Ready-to-go, Pharmacia Biotech, San Francisco, Calif.). Filters were washed and exposed to X-ray film for 5 days. The labeled probe was removed by washing at 80° C. in 0.1×SSC containing 0.1% sodium dodecyl sulphate and then rehybridized with (^32P-labeled glyceraldehyde-3-phosphate dehydrogenase) (GAPDH) cDNA probe. Densitometric analysis was performed using ImageMaster VDS 3.0 software (Pharmacia Biotech) and results were expressed as density units.
The subject of data set [10] is HIV-1 infected promonocytic UI cell line. Put plainly: HIV-p24 release from TNF-α stimulated UI cells (ELISA). Type of data set: cell-based. The conditions noted are these: 48 hr. Background: In an ELISA, binding on a coated surface is turned into a signal by an enzyme label.
Data set [11] relates to Candida albicans (ATCC 10231). Put plainly: Broth dilution turbidity test of growth inhibition. Type of data set: cell-based. The conditions noted are these: turbidity after 16-20 hours at 35±2° C. The method, then: as §1, §2, §3, §4, §5, §6, §7
Data set [12] deals with Staphylococcus epidermidis (ATCC 12228). Put plainly: Broth dilution turbidity test of growth inhibition. It counts as cell-based. The method, then: The following microorganisms were used in the Example: Candida albicans (ATCC 10231); Enterococcus faecalis (MDR) (ATCC 51299); Escherichia coli (ATCC 11229); Pseudomonas aeruginosa (ATCC 9027); Staphylococcus aureus (ATCC 6538); Staphylococcus epidermidis (ATCC 12228); and Streptococcus pyogenes Group A (ATCC 19615). These organisms were subcultured onto blood agar plates and incubated for 16-24 hours at 35±2° C. An inoculated needle or loop was touched to each of four or five well isolated colonies of the same morphological type, and the inoculum inoculated into 5 mL of MHB.
as §2
The broth culture was further diluted to 1:200 in MHB broth (to obtain a final concentration of 10^5 to 10^6 CFU/mL). To determine the initial concentration of the organism in the above solution, serial dilutions were performed 1:10 in MHB four times to achieve a final dilution of 10^−4. […] Following the incubation period, the colonies were counted. […]

For data set [13] the following is noted: Hiltz et al. 1991; cited from earlier work.
Setting [14] is: turbidity after 16-20 hours at 35±2° C.

With “8-13 sequence: α-MSH fragment 8-13 (RWGKPV; ends and bridges not checked; UniProt P01189 145-150, looked up, fragment)”, the “antipyretic potency relative to α-MSH (11-13)” value in [1] is “greater than that of the 11-13 sequence”.
With “9-13 sequence: α-MSH fragment 9-13 (WGKPV; ends and bridges not checked; UniProt P01189 146-150, looked up, fragment)”, the “antipyretic potency relative to α-MSH (11-13)” value in [1] was “almost devoid of activity”.
“10-13 sequence: α-MSH fragment formed by addition of glycine to α-MSH (11-13) (GKPV; ends and bridges not checked; UniProt P01189 147-150, looked up, fragment)”: the “antipyretic potency relative to α-MSH (11-13)” value in data set [1] is recorded as “slightly decreased potency”.
On to `CC(=O)N[C@@H](CSSC[C@H](NC(C)=O)C(=O)N[C@@H](CCCCN)C(=O)N1CCC[C@H]1C(=O)N[C@H](C(N)=O)C(C)C)C(=O)N[C@@H](CCCCN)C(=O)N1CCC[C@H]1C(=O)N[C@H](C(N)=O)C(C)C` [KPV dimer, Val-Pro-Lys-AcCys-s-s-CysAc-Lys-Pro-Val] (I: Ac-CKPV-NH2 / II: Ac-CKPV-NH2; disulfide I:1-II:1), for which the negative side effects result in data set [2] was “without negative side effects”. Further, the safety and tolerability result in data set [3] was “remarkable safety of and tolerability”.
In the case of “ACTH (1-39): adrenocorticotropic hormone (SYSMEHFRWGKPVGKKRRPVKVYPAKEDDEASEAFPLEF; listed as Homo sapiens) [reference compound]”, the “reduction of C. albicans viability in comparison with fluconazole” value (“reduction of C. albicans viability” below) in [4] was “did not reduce C. albicans viability”.
Same read-out and setting: the entry for “ACTH fragment (18-39): ACTH fragment (18-39) (PVKVYPAKEDDEASEAFPLEF; listed as Homo sapiens) [reference compound]” is “did not reduce C. albicans viability”; for “HFRWGKPV (listed as Homo sapiens) [α-MSH [6-13]]” it is “most effective”.
In the case of Lysine-Proline-Valine [KPV], the “effectiveness against the organism (in words)” value in [5] and in data set [6] was “effective” in each case. Moreover, the “S. aureus colony formation (CFU)” value in data set [7] is given as “inhibited S. aureus colony formation”. Moreover, the “urokinase-enhanced S. aureus colony formation” value in data set [8] is on record as “significantly inhibited the enhancing effect of urokinase; also recorded: significantly inhibited this urokinase-enhancing effect”. Further, in data set [4], the “reduction of C. albicans viability” value is “most effective”. In addition, in data set [9], the “reduction of spliced and unspliced HIV-1 RNA” value is “approximately 50%”.
Turning to “Met-Glu-His-Phe-Arg-Trp-Gly (EHFRWG; listed as Homo sapiens) [α-MSH [4-10], reference compound]”, the “inhibition of C. albicans CFU” value in data set [4] was “approximately 50%”.
Turning to SYSMEHFRWGKPV [α-MSH [1-13]], the “S. aureus colony formation (CFU)” value in [7] is on record as “inhibited S. aureus colony formation”. The “urokinase-enhanced S. aureus colony formation” value is “significantly inhibited this urokinase-enhancing effect” in data set [8] and “significantly inhibited the enhancing effect of urokinase” in [8] (listed as α-MSH). Further, in [4], the “reduction of C. albicans viability” value is given as “most effective”. The “inhibition of p24 release” value in data set [10] (10^−5 M, TNF-α (10 ng/mL) stimulated UI cells) amounted to 52.7%. In addition, the “p24 release from TNF-α stimulated UI cells (in words)” value in [10] (10^−13 to 10^−4 M) is recorded as “significantly inhibited p24 release”.
“SYSMEHdFRWGKPV (SYSMEH[dF]RWGKPV; ends and bridges not checked) [Phe7]”: the “minimal effective concentration that completely inhibited growth” value in data set [11] is 10^−3 M; in [5] (setting [14]), 10^−3 M; in data set [6] (setting [14]), 10^−4 M; in data set [12] (setting [14]) it was 10^−4 M. In addition, the “effectiveness against the organism (in words)” value in data set [5] is “effective”; in data set [6], “effective”; in data set [12], “very effective”.
On to [Nle4 dPhe7]α-MSH [NDP], for which, in data set [11], the “minimal effective concentration that completely inhibited growth” value is listed as 10^−3 M. For the same compound, the “potency in reducing fever relative to the parent peptide” value in [1] (Holdeman and Lipton 1985) is “approximately ten times more potent than the parent peptide”.
As for [dK11] α-MSH (11-13), the “anti-inflammatory potency relative to L-form tripeptide α-MSH 11-13” value in data set [13] is on record as “same general potency as the L-form”.

Source of the values: patent US20050074485A1, “Anti-inflammatory/anti-microbial peptides for use in dialysis” (priority 2003, published 2005).
